pIC50: −log10 of the molar value.
Columns and labels:
[1] = molecular target: Cyclin-dependent kinase 4 (Homo sapiens, UniProt P11802); assay: Inhibition of CDK4 (unknown origin)
[2] = molecular target: T1, Vascular endothelial growth factor receptor 2 (Homo sapiens, UniProt P35968); assay: Inhibition of VEGFR2 (unknown origin) expressed in baculovirus infected insect cells using biotinylated-GGGGQDGKDYIVLPI peptide as substrate incubated for 1 to 4 hrs by TR-FRET assay
[3] = Metabolic stability in human Hepatocyte assessed as half life by LC-MS/MS analysis; format: ADME, cell-based; settings: hepatocytes
Histone deacetylase 1 [4] = molecular target: T2, Histone deacetylase 1 (Homo sapiens, UniProt Q13547); assay: Inhibition of HDAC1 (unknown origin)
[5] = molecular target: T3, Protein deacetylase HDAC6 (Homo sapiens, UniProt Q9UBN7); assay: Inhibition of human recombinant HDAC6 using fluorogenic HDAC substrate by fluorescence assay
T3 sequence (Q9UBN7 whole entry): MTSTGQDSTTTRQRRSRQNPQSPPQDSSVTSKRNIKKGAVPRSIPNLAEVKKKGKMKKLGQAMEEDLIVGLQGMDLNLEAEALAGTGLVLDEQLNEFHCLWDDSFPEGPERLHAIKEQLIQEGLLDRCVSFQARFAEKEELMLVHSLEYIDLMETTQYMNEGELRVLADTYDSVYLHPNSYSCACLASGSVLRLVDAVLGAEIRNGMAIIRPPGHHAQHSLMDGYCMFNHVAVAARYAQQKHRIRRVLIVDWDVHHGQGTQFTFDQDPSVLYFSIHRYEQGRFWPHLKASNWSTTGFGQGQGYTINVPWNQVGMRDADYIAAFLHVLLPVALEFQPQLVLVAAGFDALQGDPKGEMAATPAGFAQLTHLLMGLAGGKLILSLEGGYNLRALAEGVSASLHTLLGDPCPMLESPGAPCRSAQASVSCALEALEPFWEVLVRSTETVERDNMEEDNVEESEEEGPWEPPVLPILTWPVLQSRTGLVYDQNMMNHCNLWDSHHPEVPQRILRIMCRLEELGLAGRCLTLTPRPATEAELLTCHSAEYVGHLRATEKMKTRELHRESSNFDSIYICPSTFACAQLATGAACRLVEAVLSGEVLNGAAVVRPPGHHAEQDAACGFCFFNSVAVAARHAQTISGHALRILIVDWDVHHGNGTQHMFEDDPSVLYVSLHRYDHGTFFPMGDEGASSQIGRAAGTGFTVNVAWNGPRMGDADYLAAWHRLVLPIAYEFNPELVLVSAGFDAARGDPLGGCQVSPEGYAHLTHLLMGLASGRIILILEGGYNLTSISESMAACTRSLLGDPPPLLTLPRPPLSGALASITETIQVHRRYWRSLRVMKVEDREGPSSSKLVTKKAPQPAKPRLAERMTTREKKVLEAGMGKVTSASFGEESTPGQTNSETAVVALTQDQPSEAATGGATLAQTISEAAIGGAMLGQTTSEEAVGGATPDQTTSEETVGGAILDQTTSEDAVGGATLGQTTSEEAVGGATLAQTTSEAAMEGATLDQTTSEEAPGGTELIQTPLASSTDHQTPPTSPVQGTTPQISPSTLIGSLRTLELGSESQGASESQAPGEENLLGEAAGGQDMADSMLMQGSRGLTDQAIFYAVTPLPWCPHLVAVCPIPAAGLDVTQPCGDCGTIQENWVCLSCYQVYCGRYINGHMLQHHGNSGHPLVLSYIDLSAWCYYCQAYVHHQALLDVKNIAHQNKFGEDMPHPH

Histone deacetylase 1 [6] = molecular target: T2, Histone deacetylase 1; assay: Inhibition of HDAC1 (unknown origin) using ZMAL (Z-Lys(Ac)-AMC as fluorogenic substrate pre-incubated for 30 mins measured for 1 hr by fluorescence based analysis
Histone deacetylase 3 [7] = molecular target: T4, Histone deacetylase 3 (Homo sapiens, UniProt O15379); assay: Inhibition of HDAC3 (unknown origin)
[8] = molecular target: von Hippel-Lindau disease tumor suppressor/Protein deacetylase HDAC6 (Homo sapiens, UniProt Q9UBN7+P40337); assay: Protac activity at VHL/HDAC6 in human MDA-MB-468 cells assessed as HDAC6 degradation measured after 14 hrs by Western blot analysis; format: cell-based
Histone deacetylase 1 [9] = molecular target: T2, Histone deacetylase 1; assay: Inhibition of HDAC1 (unknown origin) by fluorescence based assay
[10] = molecular target: T5, Bromodomain-containing protein 4 (Homo sapiens, UniProt O60885); assay: Inhibition of BRD4 BD1 (unknown origin) incubated for 15 mins by TR-FRET analysis
[11] = molecular target: T5, Bromodomain-containing protein 4; assay: Inhibition of BRD4 BD2 (unknown origin) by TR-FRET assay
Histone deacetylase 3 [12] = molecular target: T4, Histone deacetylase 3; assay: Inhibition of HDAC3 (unknown origin) at 10 uM relative to control
Homo sapiens = species: Homo sapiens; assay: Inhibition of Topoisomerase 2 (unknown origin) at 50 to 100 uM incubated for 15 mins in the presence of ATP by electrophoretic analysis; settings: dose 50-100 µM
Histone deacetylase 8 [13] = molecular target: T6, Histone deacetylase 8 (Homo sapiens, UniProt Q9BY41); assay: Inhibition of human HDAC8 using Boc-Lys (Ac)-AMC as substrate incubated for 60 mins by fluorimetric assay
T6 sequence (Q9BY41 whole entry): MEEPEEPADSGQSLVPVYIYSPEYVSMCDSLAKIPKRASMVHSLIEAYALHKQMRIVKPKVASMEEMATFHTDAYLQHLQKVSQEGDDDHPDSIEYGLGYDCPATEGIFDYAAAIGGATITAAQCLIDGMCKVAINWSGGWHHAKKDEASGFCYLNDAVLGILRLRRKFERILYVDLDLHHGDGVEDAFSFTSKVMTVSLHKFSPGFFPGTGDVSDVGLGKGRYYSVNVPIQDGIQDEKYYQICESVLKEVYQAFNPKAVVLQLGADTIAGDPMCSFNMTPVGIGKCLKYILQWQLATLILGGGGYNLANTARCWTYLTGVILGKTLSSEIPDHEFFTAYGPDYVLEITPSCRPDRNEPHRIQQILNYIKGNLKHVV

[14] = molecular target: T7, Protein cereblon/Histone deacetylase 8 (Homo sapiens, UniProt Q9BY41+Q96SW2); assay: PROTAC activity at HDAC8/CRBN in human HCT-116 cells assessed as degradation of HDAC8 by Western blot analysis; format: cell-based
Histone deacetylase 8 [15] = molecular target: T6, Histone deacetylase 8; assay: Inhibition of human recombinant His-tagged HDAC8 expressed in Escherichia coli BL21 (DE3) using ArgHisLysLys(Ac) as substrate pre-incubated for 1 hr and measured after 1 hr by fluorescence based analysis
[16] = molecular target: T3, Protein deacetylase HDAC6; assay: Inhibition of HDAC6 (unknown origin)
[17] = molecular target: von Hippel-Lindau disease tumor suppressor/Histone deacetylase 1 (Homo sapiens, UniProt Q13547+P40337); assay: PROTAC activity at VHL/HDAC1 in human ES1 cells assessed as HDAC1 degradation by fluorescence based assay; format: cell-based
Histone deacetylase 3 [18] = molecular target: T4, Histone deacetylase 3; assay: Inhibition of HDAC3 (unknown origin) using biotinylated histone H3 KAc peptide as substrate pretreated with compound for 1 hrs followed by substrate addition measured after 1 hrs by microplate reader analysis by HTRF assay
[19] = molecular target: von Hippel-Lindau disease tumor suppressor/Histone deacetylase 2 (Homo sapiens, UniProt Q92769+P40337); assay: PROTAC activity at VHL/HDAC2 in human ES1 cells assessed as HDAC2 degradation by fluorescence based assay; format: cell-based
[20] = molecular target: T7, Protein cereblon/Histone deacetylase 8; assay: PROTAC activity at HDAC8/CRBN in human HCT-116 cells assessed as degradation of HDAC8 measured after 10 hrs in presence of E3 ligase inhibitor by Western blot analysis; format: cell-based
Histone deacetylase 1 [21] = molecular target: T2, Histone deacetylase 1; assay: Inhibition of human recombinant HDAC1 using Ac-RHKK(Acetyl)-AMC peptide as fluorogenic substrate pre-incubated for 30 mins followed by substrate addition and measured for 60 mins by fluorescence based analysis
Histone deacetylase 8 [22] = molecular target: T6, Histone deacetylase 8; assay: Inhibition of HDAC8 (unknown origin) using Fluoro-Substrate Peptide as substrate by fluorescence based assay
Histone deacetylase 2 = Histone deacetylase 2 (Homo sapiens, UniProt Q92769); assay: Inhibition of human recombinant HDAC2 using Ac-RHKK(Acetyl)-AMC peptide as fluorogenic substrate pre-incubated for 30 mins followed by substrate addition and measured for 60 mins by fluorescence based analysis
[23] = molecular target: T1, Vascular endothelial growth factor receptor 2; assay: Inhibition of VEGFR2 (unknown origin) using poly (Glu,Tyr) 4:1 as substrate measured after 1 hr in presence of ATP by spectrophotometric analysis
[24] = molecular target: T3, Protein deacetylase HDAC6; assay: Inhibition of HDAC6 (unknown origin) using biotinylated histone H3 KAc peptide (1 to 21 residues) as substrate by HTRF assay
[25] = molecular target: Vascular endothelial growth factor receptor 1 (Homo sapiens, UniProt P17948); assay: Inhibition of VEGFR1 (unknown origin)
Histone deacetylase 1 [26] = molecular target: T2, Histone deacetylase 1; assay: Inhibition of human recombinant HDAC1 using fluorogenic substrate incubated for 30 mins by fluorescence based assay
[27] = molecular target: Protein cereblon/Histone deacetylase 3 (Homo sapiens, UniProt O15379+Q96SW2); assay: Protac activity at CRBN/HDAC3 in human MDA-MB-468 cells assessed as HDAC3 degradation measured after 14 hrs by Western blot analysis; format: cell-based
[28] = molecular target: T3, Protein deacetylase HDAC6; assay: Inhibition of HDAC6 (unknown origin) using Ac-peptide as substrate preincubated for 15 mins followed by substrate addition and measured after 1 hr by fluorescence based assay

T2 sequence (Q13547 whole entry): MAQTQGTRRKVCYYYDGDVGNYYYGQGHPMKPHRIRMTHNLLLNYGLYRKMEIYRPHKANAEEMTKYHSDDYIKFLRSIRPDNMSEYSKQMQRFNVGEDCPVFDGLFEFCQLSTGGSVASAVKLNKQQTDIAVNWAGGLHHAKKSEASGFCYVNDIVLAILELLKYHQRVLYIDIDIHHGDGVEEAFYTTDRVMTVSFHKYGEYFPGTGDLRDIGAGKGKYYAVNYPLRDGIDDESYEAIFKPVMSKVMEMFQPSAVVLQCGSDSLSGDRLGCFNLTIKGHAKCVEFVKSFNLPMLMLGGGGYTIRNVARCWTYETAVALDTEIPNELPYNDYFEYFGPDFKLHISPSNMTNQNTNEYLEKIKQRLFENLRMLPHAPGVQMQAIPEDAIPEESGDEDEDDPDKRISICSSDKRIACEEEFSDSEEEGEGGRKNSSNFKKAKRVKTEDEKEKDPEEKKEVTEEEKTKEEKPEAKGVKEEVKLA
Chain of von Hippel-Lindau disease tumor suppressor/Histone deacetylase 1 (Q13547 whole entry): as above
Chain of von Hippel-Lindau disease tumor suppressor/Histone deacetylase 1 (P40337 whole entry): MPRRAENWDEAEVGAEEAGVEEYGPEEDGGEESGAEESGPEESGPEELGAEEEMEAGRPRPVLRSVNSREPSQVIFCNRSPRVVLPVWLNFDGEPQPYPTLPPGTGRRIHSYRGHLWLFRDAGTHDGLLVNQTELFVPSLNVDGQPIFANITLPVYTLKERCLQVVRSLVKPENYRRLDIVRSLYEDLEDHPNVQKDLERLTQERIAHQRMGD
T4 sequence (O15379 whole entry): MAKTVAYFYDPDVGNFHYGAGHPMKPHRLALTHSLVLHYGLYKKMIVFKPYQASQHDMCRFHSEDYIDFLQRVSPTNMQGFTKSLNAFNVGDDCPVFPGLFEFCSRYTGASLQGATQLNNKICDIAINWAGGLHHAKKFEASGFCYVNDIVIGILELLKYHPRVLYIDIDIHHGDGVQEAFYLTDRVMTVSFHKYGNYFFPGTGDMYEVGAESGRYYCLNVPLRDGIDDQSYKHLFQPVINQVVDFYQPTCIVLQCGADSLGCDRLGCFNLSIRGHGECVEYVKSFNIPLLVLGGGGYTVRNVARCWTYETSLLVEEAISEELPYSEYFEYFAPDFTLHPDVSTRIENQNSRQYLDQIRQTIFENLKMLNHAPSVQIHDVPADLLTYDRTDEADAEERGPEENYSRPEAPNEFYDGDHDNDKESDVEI
Chain of von Hippel-Lindau disease tumor suppressor/Histone deacetylase 2 (Q92769 whole entry): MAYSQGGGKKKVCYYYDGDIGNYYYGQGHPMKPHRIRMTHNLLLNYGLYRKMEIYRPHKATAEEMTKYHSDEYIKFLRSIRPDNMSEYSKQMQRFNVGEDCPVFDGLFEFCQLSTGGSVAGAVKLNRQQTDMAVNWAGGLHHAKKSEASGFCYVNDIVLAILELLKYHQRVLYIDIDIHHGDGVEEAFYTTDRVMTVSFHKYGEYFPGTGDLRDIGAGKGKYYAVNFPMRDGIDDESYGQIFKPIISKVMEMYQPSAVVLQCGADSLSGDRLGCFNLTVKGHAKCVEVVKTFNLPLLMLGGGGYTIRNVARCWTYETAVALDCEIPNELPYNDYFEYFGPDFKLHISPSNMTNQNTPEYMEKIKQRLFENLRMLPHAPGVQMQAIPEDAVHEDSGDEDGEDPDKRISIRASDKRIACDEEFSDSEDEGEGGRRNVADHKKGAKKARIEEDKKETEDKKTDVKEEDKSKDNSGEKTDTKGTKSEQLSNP
Chain of von Hippel-Lindau disease tumor suppressor/Histone deacetylase 2 (P40337 whole entry): as the sequence (P40337 whole entry) above
T7 sequence (Q96SW2 whole entry, one chain of several): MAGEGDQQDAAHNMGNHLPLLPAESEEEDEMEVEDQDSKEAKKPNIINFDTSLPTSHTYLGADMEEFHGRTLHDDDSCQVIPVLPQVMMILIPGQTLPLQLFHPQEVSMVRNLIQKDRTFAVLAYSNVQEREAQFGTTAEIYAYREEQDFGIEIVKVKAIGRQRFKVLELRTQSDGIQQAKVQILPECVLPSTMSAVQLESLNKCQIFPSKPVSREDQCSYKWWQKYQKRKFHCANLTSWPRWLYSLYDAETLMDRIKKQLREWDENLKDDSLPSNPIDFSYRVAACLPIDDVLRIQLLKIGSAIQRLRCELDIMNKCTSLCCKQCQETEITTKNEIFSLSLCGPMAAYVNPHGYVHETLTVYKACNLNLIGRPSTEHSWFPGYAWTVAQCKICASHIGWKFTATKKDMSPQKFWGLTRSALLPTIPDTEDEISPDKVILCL
T1 sequence (P35968 whole entry): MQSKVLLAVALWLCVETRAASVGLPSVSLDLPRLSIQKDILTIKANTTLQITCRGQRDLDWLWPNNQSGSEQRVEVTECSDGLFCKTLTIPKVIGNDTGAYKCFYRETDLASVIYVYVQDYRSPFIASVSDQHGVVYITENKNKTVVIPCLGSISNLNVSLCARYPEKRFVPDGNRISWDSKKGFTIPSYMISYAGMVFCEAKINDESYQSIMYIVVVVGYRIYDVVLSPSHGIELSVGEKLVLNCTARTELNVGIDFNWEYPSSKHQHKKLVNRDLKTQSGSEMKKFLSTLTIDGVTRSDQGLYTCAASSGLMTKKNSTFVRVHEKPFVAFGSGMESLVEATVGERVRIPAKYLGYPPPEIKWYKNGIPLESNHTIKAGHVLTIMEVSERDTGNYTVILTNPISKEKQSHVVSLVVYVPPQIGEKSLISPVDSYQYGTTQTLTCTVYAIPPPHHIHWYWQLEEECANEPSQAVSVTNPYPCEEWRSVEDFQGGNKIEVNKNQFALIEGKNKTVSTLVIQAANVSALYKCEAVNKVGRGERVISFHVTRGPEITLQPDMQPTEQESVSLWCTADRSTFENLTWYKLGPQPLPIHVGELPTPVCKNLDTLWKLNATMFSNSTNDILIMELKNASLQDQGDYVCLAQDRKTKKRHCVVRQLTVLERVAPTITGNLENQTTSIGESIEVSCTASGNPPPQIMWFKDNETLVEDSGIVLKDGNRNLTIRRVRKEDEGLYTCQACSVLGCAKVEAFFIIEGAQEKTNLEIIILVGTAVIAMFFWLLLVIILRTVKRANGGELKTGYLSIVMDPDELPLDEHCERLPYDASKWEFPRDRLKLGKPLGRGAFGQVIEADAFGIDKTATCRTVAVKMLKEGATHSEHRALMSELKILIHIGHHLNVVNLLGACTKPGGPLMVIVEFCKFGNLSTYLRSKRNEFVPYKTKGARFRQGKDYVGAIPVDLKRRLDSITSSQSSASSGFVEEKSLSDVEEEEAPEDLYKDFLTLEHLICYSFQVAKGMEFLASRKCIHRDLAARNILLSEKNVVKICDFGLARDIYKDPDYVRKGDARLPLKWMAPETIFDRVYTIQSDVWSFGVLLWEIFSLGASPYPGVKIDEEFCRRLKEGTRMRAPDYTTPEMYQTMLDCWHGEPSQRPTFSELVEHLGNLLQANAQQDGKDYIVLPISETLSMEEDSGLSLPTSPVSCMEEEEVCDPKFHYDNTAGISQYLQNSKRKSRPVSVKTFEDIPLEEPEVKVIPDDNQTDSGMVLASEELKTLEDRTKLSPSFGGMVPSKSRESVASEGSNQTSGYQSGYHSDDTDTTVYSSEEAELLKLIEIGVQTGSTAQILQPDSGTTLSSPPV
Chain of von Hippel-Lindau disease tumor suppressor/Protein deacetylase HDAC6 (P40337 whole entry, one chain of several): as the sequence (P40337 whole entry) above
Chain of Cyclin-dependent kinase 4 (P11802 whole entry): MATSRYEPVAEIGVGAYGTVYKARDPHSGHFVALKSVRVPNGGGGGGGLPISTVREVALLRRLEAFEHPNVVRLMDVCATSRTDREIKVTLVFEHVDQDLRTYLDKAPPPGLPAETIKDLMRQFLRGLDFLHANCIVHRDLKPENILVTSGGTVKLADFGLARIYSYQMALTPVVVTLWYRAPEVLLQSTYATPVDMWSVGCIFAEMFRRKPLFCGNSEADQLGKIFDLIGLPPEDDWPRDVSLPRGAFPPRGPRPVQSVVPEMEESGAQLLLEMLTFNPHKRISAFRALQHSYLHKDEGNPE
Chain of Histone deacetylase 2 (Q92769 whole entry): as the sequence (Q92769 whole entry) above
Chain of Protein cereblon/Histone deacetylase 3 (O15379 whole entry): as the sequence (O15379 whole entry) above
Chain of Protein cereblon/Histone deacetylase 3 (Q96SW2 whole entry): as the sequence (Q96SW2 whole entry, one chain of several) above

## O=C(CCCCCCN1CCN(c2ccc(Nc3ncc(F)c(-c4cn(C5CCCC5)nn4)n3)cc2)CC1)NO
[1]
  pIC50: 7.64

## CCCNNC(=O)c1ccc(Nc2nccc(N(C)c3ccc4c(C)n(C)nc4c3)n2)cc1
[2]
  pIC50: 7.60
[3]
  half-life: < 15 min
Histone deacetylase 1 [4]
  pIC50: 6.38

## O=C(Cc1ccc(C(=O)NO)cc1)Nc1ccc2ncnc(Nc3ccc(Br)c(F)c3)c2c1
[5]
  pIC50: 7.82
Histone deacetylase 1 [6]
  pIC50: 6.13

## Nc1ccccc1NC(=O)Cc1ccc2ncccc2c1
Histone deacetylase 3 [7]
  pIC50: 6.25

## Cc1ncsc1-c1ccc([C@H](C)NC(=O)[C@@H]2C[C@@H](O)CN2C(=O)[C@@H](NC(=O)COCCOCCOCC(=O)NCc2cccc(CNc3ncc(-c4nnc(C(F)F)o4)cn3)c2)C(C)(C)C)cc1
[8]
  DC50: 0.686 µM

## Cc1ccccc1/C=C/C(=O)Nc1ccc(C(=O)NS(=O)(=O)c2ccc(NCCCCCCC(=O)NO)c([N+](=O)[O-])c2)c(Oc2ccccc2)c1
[5]
  pIC50: 8.52
Histone deacetylase 1 [6]
  pIC50: 6.99

## Cc1sc2c(c1C)C(c1ccc(Cl)cc1)=N[C@@H](CC(=O)Nc1ccc(C(=O)Nc3ccccc3[N+](=O)[O-])cc1)c1nnc(C)n1-2
Histone deacetylase 1 [9]
  pIC50: 6.54
[10]
  pIC50: 6.14
[11]
  pIC50: 7.13

## O=C(/C=C/c1ccc(CSc2nc3[nH]ncc3c(=O)n2-c2ccccc2)cc1)NO
Histone deacetylase 3 [12]
  inhibition: 88%
Homo sapiens
  inhibition: 82.1%

## O=C(COc1ccc2c(c1)OC1(CCN(Cc3cc(F)cc(F)c3)CC1)CC2=O)NO
[5]
  pIC50: 7.10
Histone deacetylase 8 [13]
  pIC50: 5.05

## O=C1CCC(N2C(=O)c3cccc(NCCCCCCCCCCCNC(=O)Nc4cccc(SCc5cn(-c6cccc(C(=O)NO)c6)nn5)c4)c3C2=O)C(=O)N1 (configuration not stated)
[14]
  DC50: 0.053 µM

## O=C(CCCN1CCN(C(=O)Nc2ccnc3ccccc23)CC1)NO
Histone deacetylase 8 [15]
  pIC50: 5.70

## O=C(CS)Nc1ccc(Cn2c3c(c4ccccc42)CS(=O)(=O)CC3)cc1
[16]
  pIC50: 6.89

## Cc1ncsc1-c1ccc(CNC(=O)[C@@H]2C[C@@H](O)CN2C(=O)[C@@H](NC(=O)CCCCCCCCCCC(=O)Nc2ccc(C(=O)Nc3ccccc3N)cc2)C(C)(C)C)cc1
[17]
  DC50: 17 µM

## O=C(Cc1ccc2ncccc2c1)Nc1ccccc1O
Histone deacetylase 3 [18]
  pIC50: 5.70

## CCCNNC(=O)c1ccc(-c2ccc(NC(=O)CCCCCCC(=O)N[C@H](C(=O)N3C[C@H](O)C[C@H]3C(=O)N[C@@H](C)c3ccc(-c4scnc4C)cc3)C(C)(C)C)cc2)cc1
[19]
  DC50: 2 µM
[17]
  DC50: 0.65 µM

## CN(c1ccccc1)c1ncc(NC(=O)CS)cn1
[5]
  pIC50: 7.14
Histone deacetylase 1 [6]
  pIC50: 5.70

## O=C(COc1ccc2c(c1)OC1(CCN(Cc3cc(Cl)cc(Cl)c3)CC1)CC2=O)NO
[5]
  pIC50: 7.10
Histone deacetylase 8 [13]
  pIC50: 5.10

## COc1ccc(C(=O)NO)cc1NCc1ccc(OCc2cn(CCCCCNc3cccc4c3C(=O)N(C3CCC(=O)NC3=O)C4=O)nn2)cc1 (configuration not stated)
[20]
  DC50: 0.25 µM

## COc1ccc(-c2ccc3c(NC(=O)CCCCCCC(=O)NO)n[nH]c3c2)cc1
Histone deacetylase 1 [21]
  pIC50: 8.70
Histone deacetylase 8 [22]
  pIC50: 8.40
Histone deacetylase 2
  pIC50: 8.40

## Cc1c2ccc(N(C)c3ccnc(Nc4ccc(NC(=O)CCCCCCC(=O)NO)cc4)n3)cc2nn1C
[23]
  pIC50: 7.80
[24]
  pIC50: 7.03
[25]
  pIC50: 7.74
[3]
  half-life: < 15 min
Histone deacetylase 1 [26]
  pIC50: 6.92

## O=C(CCCCCCNC(=O)c1ccc(NC(=O)COCCOCCNC(=O)COc2cccc3c2C(=O)N(C2CCC(=O)NC2=O)C3=O)cc1)NO (configuration not stated)
[8]
  DC50: 0.027 µM
[27]
  DC50: 0.139 µM
[19]
  DC50: 0.248 µM
[17]
  DC50: 0.174 µM

## CCCNNC(=O)/C=C/c1ccc(CNCCc2c(C)[nH]c3ccccc23)cc1
[28]
  pIC50: < 7.30

Reference: ChEMBL document CHEMBL5543060, “Technologies of targeting histone deacetylase in drug discovery: Current progress and emerging prospects” (Eur J Med Chem, 2023)
